{"source": "patent US20020076393A1", "about": "“Method for stimulation of defensin production” (MAGAININ PHARMACEUTICALS, INC., priority 1998, published 2002)", "key": {"[1]": {"test_system": "defensin production in MDBK cells", "test": "Defensin induction in MDBK cells (RNA-PCR / QPCR of β-defensin RNA)", "type": "cell-based, bovine", "settings": "for effect on defensin production: at concentrations as high as fifty micrograms per milliliter", "protocol": "Cell Culture: MDBK (Madin-Darby Bovine Kidney) cells were obtained from the ATCC (Rockville, Md.) and were maintained in growth medium consisting of Eagle's modified essential media with Earle's balanced salt solution, 10% horse serum, 0.10 mM non-essential amino acids and no antibiotics. For stimulation experiments, cells were plated into six well tissue culture plates and maintained for three days in growth medium until cells were almost confluent. The medium was then changed to serum-free epithelial cell growth medium (Clonetics, San Diego, Calif.) and the test material was added to the dish. Twenty-four hours later, the medium was withdrawn and cells were rinsed with phosphate-buffered saline. Total RNA was then isolated using Trizol reagent (Gibco/BRL, Grand Island, N.Y.) according to protocols supplied by the manufacturer. RNA was quantified by measuring the OD260 of each sample.\nRNA-Polymerase Chain Reaction: Total RNA was treated with DNase prior to reverse transcription and PCR. The DNase was heat inactivated at 65° C. in the presence of EDTA for ten minutes. Reverse transcription and PCR were performed essentially as described for the GeneAmp RNA PCR kit (Perkin Elmer, Foster City, Calif.). Briefly, approximately 250 nanograms of total RNA was primed with polydT and reverse transcribed with Murine Leukemia Virus reverse transcriptase in a total volume of 16 μL at room temperature for ten minutes and then at 42° C. for an additional fifteen minutes. The reverse transcriptase was heat inactivated at 99° C. for five minutes and the reaction was chilled to 4 degrees C. This reverse transcription reaction was then split in half: one portion was used for amplification of the target defensin RNA, and the other was treated in parallel to determine the β-tubulin RNA level as a control. Additional reagents necessary for the PCR reaction, including appropriate synthetic DNA primers;\nwere added after splitting the reverse transcription reactions to bring the reaction volumes to 40 μL. The reactions were then subjected to thermal cycling as follows: 95° C. for one minute, 52° C. for one minute, 72° C. for one minute for 30 cycles followed by a single 72° C. incubation for fifteen minutes to allow for extension. The expected 200 base pair β-defensin PCR product was measured by gel electrophoresis or QPCR (Quantitative PCR).\nProduct Capture for QPCR System: 10 μL of the final PCR mixture was combined with 15 μL of strepavidin bead slurry (Perkin-Elmer, Foster City, Calif.), 21 μL H2O and 4 μL of 10× PCR buffer to yield a 50 μL binding reaction. The binding reactions were incubated at room temperature for fifteen minutes with occasional agitation. One ml of QPCR assay buffer was then added to the reaction. The quantity of PCR product was subsequently measured with the Perkin-Elmer QPCR instrument (Perkin-Elmer, Foster City, Calif.). The amount of defensin product was normalized to endogenous expression in MDBK cells in the absence of any experimental agent."}, "[2]": {"test_system": "defensin production in HT-29 cells", "test": "Defensin induction in the human colon epithelial cell line HT-29", "type": "cell-based", "settings": "FIG. 5"}, "[3]": {"test_system": "defensin production in epithelial cells", "test": "Defensin inducing effect of isoleucine analogs in epithelial cells (FIGS. 6-9)", "type": "cell-based", "settings": "for defensin induction: epithelial cells, FIGS. 6, 7 and 8"}}}
{"compound": "CC[C@H](C)[C@H](N)C(=O)O", "note": "[L-isoleucine]", "values": [{"measurement": "dose-response effect on defensin production", "setting": "[1]; FIG. 2", "value": "dose-dependent effect"}, {"measurement": "concentration increasing defensin production, fold less than that of D-isoleucine", "setting": "[1]; L-isoleucine versus D-isoleucine, FIGS. 2 and 3", "value": "fifty to one-hundred"}, {"measurement": "defensin induction", "setting": "[2]", "value": "defensin inducing property"}]}
{"compound": "COC(=O)[C@@H](N)Cc1ccc(O)cc1", "note": "[L-tyrosine methyl ester, reference compound]", "values": [{"measurement": "effect on defensin production", "setting": "[1]", "value": "no effect"}]}
{"compound": "CC(C)[C@H](N)C(=O)O", "note": "[L-valine]", "values": [{"measurement": "stimulation of defensin expression, concentrations compared with isoleucine", "setting": "[3]; FIG. 9", "value": "stimulates defensin expression at concentrations that are substantially higher than those needed for isoleucine"}, {"measurement": "effect on defensin production", "setting": "[1]", "value": "no effect"}]}
{"compound": "CC[C@@H](C)[C@H](N)C(=O)O", "note": "[alloisoleucine]", "values": [{"measurement": "effectiveness as inducer of defensin production compared with isoleucine", "setting": "[1]; FIG. 4", "value": "not as effective an inducer"}]}
{"compound": "CC[C@H](C)C(=O)C(=O)O", "note": "[alpha-keto-methylvalerate]", "values": [{"measurement": "defensin induction", "setting": "[3]", "value": "inducers of defensin production"}]}
{"compound": "CC[C@H](C)[C@H](N)C(=O)NO", "note": "[isoleucine hydroxamate]", "values": [{"measurement": "defensin induction", "setting": "[3]", "value": "inducers of defensin production"}]}
